Laboratory results reported in patent publication US12391670B2, “Functionalized aminotriazines” (LEADXPRO AG, priority 2018, dated 2025).
Where two headings read alike, the source gives them in different places.

Columns and labels:
human A2B receptor [1] = target: T1, human A2B receptor (Homo sapiens (Human), UniProt P29275); assay: Radioligand binding competition assay, [3H]-DPCPX, membranes from HEK293 cells transfected with human A2B receptor
Method: (§1) For all four adenosine receptors (A1, A2A, A2B and A3) filtration binding assay was performed. Radioligand binding competition assay was done in duplicates in the wells of a 96-well plate (Master Block, Greiner, 786201) containing binding buffer, receptor membrane extracts, a fixed concentration of tracer and test compound at increasing concentrations. In order to eliminate effect of buffer components, binding buffer was the same for all four receptors and contained: 50 mM Tris-HCl pH 7.4, 5 mM MgCl2, 1 mM EDTA, 150 mM NaCl, 0.1% Na-azide, and 5 U/ml adenosine-deaminase. Nonspecific binding was determined by co-incubation with 200-fold excess of cold competitor. In all radioligand binding experiments, the samples were incubated in a final volume of 0.1 ml for 60 minutes at 25° C. and then filtered over Unifilter plates (Perkin Elmer) pre-treated for 2 hours to limit tracer non-specific binding. Filters were washed five times with 0.5 ml of ice-cold washing buffer (50 mM Tris-HCl pH 7.4, 5 mM MgCl2, 1 mM EDTA) and 50 μl of Microscint 20 (Perkin Elmer) were added to each filter. The plates are incubated 15 min at room temperature on an orbital shaker and then counted with a TopCount™ for 1 min/well.
For A2B, the assay was carried with [^3H]-DPCPX and membranes prepared from HEK293 cells transfected with human A2B receptor (Euroscreen FAST-003B).

human A2A receptor = human A2A receptor (Homo sapiens (Human), UniProt P29274); assay: Radioligand binding competition assay, [3H]-NECA, membranes from HEK293 cells transfected with human A2A receptor; details: for Human A2A Receptor pKi / IC50: radioligand binding
human A2A receptor, sequence (P29274 whole entry): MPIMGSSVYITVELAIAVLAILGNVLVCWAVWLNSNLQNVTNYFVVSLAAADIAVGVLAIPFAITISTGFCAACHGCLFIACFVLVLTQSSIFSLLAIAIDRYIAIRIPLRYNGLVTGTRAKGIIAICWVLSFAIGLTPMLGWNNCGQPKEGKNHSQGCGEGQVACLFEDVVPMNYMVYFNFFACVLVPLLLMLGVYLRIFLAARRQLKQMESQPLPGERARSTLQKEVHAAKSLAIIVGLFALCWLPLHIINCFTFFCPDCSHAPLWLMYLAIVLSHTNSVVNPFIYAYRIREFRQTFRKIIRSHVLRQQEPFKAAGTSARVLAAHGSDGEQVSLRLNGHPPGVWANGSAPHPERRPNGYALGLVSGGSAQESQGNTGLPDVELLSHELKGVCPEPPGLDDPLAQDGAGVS
Method: as §1
For A2A receptor the assay was performed with [^3H]-NECA and membranes from HEK293 cells transfected with human A2A receptor (Euroscreen FAST-002B).

human A1 receptor = human A1 receptor (Homo sapiens (Human), UniProt P30542); assay: Radioligand binding competition assay, [3H]-DPCPX, membranes from CHO-K1 cells transfected with human A1 receptor
human A1 receptor, sequence (P30542 whole entry): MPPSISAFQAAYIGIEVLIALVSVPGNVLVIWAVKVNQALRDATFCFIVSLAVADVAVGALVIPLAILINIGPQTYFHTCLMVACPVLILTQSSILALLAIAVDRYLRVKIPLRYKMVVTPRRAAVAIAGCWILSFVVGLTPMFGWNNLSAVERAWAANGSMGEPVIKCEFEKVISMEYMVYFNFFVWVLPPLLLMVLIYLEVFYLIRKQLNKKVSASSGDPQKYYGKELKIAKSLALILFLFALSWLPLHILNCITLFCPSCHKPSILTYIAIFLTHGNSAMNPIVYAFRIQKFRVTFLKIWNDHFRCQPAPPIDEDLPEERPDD
Method: as §1
For A1 receptor the assay was performed with [^3H]-DPCPX and membranes from CHO-K1 cells transfected with human A1 receptor (Euroscreen FAST-00B).

[2] = target: human thermostabilised A2B receptor; assay: Wave Guided Interferometry (WGI); format: binding; details: 1:1 interaction model
Method: Biophysical Assays: A2B and A2A receptors used for biophysical measurements were produced using baculovirus mediated expression in insect cells. Expression constructs for both receptors contained point mutations that increased receptor thermal stability. Thermostabilised A2B and A2A receptors were solubilized using mild detergents (DDM and DM, respectively) and purified by standard purification methods. A2B receptor was purified in the buffer containing: 40 mM Tris-HCl pH 7.4, 200 mM NaCl, 0.05% DDM, and 0.005% CHS. A2A receptor was purified in the buffer containing: 40 mM Tris-HCl pH 7.4, 200 mM NaCl, 0.15% DM, and 0.002% CHS.
WGI experiments with A2B receptor were performed using the Wave delta instrument (Creoptix AG), a label free surface biosensor. Purified A2B protein was immobilized on 4PCP-N chips (Creoptix, quasi planar NTA functionalized polycarboxylate surface) at typical levels between […]. Running buffer was 25 mM Tris-HCl pH 7.5, 350 mM NaCl, 0.1% DDM, and 2% DMSO. The procedure started with 40 start-up cycles in order to equilibrate and stabilize the surface. Once start-up cycles were performed, different concentrations of compounds (diluted in running buffer, and adjusted depending on the kinetic characteristics) were injected in a multi cycle kinetic mode with typical association time of 120 s and dissociation time of 240 s. A DMSO calibration (typically 5 concentrations between 1 and 3% DMSO) was performed for every experiment in order to calibrate DMSO levels as well as to estimate the missing volume taken by the protein on the chip. Data were evaluated with Creoptix Wave software (Creoptix AG). All final signals are double referenced with injections of same compound concentrations on a reference channel and with buffer injections on the active channel (where protein is immobilized) and fitted with a 1:1 interaction model in order to obtain KD values.

[3] = target: A2B receptors endogenously expressed in HEK293 cells (Homo sapiens (Human), UniProt P29275); assay: cAMP assay (a), HEK293 cells with A2B receptors endogenously expressed; format: cell-based; details: stimulated with 5 μM NECA
A2B receptors endogenously expressed in HEK293 cells, sequence (P29275 whole entry): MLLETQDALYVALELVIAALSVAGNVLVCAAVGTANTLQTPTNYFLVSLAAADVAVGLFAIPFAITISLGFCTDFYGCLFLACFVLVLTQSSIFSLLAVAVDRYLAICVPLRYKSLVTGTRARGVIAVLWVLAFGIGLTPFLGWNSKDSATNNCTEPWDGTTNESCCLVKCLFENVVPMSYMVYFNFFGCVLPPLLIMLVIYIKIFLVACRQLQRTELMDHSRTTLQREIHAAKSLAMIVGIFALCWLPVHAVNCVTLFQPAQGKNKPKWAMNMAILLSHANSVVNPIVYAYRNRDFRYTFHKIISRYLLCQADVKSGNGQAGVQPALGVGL
Method: (§2) Two assays have been employed, one using HEK293 with A2B receptors endogenously expressed (named cAMP assay (a) in the following) and a second one using HEK293 cells impressing recombinant human A2B receptors (named cAMP assay (b) in the following)
Real-time cAMP-assays in live cells were performed in HEK293 cells stably expressing the EPAC-sensor (I. Vedel, et al., 2015, J. Biomol. Screen. 20, 849-857).
In order to test for cAMP inhibition by preferred compounds of formula I and antagonists, respectively, from this invention, endogenous A2A and A2B expression in above cell lines was exploited. To run the assay, cells were incubated in 80 μl assay buffer for 15 minutes at room temperature. The assay buffer was composed of Hanks Balanced Salt Solution (Gibco) with 20 mM HEPES, pH 7.4 and […] adenosine-deaminase. All cAMP assays were run at room temperature using a PHERAstar FSX plate reader. The FRET donor (mCerulean) was excited at 430 nm. Fluorescence emission was measured at 480 nm and 530 nm for 65 minutes (cycle time 1.45 min). Prior to stimulation fluorescence was measured for 10 min (baseline). Subsequently cells were stimulated with 5 μM NECA (5′-(N-Ethylcarboxamido)adenosine; Tocris, Cat.-No:35920-39-9). Sharply 10.15 min after stimulation the compounds were added at increasing concentrations (between 0 and 200 μM) and fluorescence was recorded for 40 min. Each compound concentration was measured in duplicates.

human A3 receptor = human A3 receptor (Homo sapiens (Human), UniProt P0DMS8); assay: Radioligand binding competition assay, [125I]-MECA, membranes from CHO-K1 cells transfected with human A3 receptor
human A3 receptor, sequence (P0DMS8 whole entry): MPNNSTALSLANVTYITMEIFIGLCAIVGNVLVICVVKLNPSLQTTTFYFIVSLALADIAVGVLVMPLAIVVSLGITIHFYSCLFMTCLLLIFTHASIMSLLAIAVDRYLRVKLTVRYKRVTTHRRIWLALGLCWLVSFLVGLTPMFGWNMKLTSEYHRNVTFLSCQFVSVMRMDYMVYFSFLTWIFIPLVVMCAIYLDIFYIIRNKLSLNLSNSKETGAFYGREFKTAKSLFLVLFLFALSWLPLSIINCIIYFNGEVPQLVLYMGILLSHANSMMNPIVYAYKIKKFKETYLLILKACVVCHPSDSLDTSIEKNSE
Method: as §1
For A3, the assay was carried out with [^125I]-MECA and membranes from CHO-K1 cells transfected with human A3 receptor (Euroscreen FAST-004B).

human A2B receptor [4] = target: T1, human A2B receptor; assay: cAMP assay (b), HEK293 cells expressing recombinant human A2B receptor; format: cell-based; details: reference agonist at EC80, read-out: cAMP pIC50 (converted)
Method: as §2
Dose response curves were performed in parallel with the reference compounds. 12 μl of cells were mixed with 6 μl of the test compound at increasing concentrations and then incubated 10 min. Thereafter 6 μl of the reference agonist was added at a final concentration corresponding to the historical EC80. The plates were then incubated for 30 min at room temperature. After addition of the lysis buffer and 1 hour incubation, cAMP concentrations were estimated, according to the manufacturer specification, with the HTRF kit.

[5] = read-out: cAMP pIC50 (converted)

T1 sequence (P29275 whole entry): as the sequence (P29275 whole entry) above

Row | Human A2B Receptor pKi (human A2B receptor [1]) | IC50 (human A2B receptor [1]) [nM] | Human A2A Receptor pKi (human A2A receptor) | IC50 (human A2A receptor) [nM] | Human A1 Receptor pKi (human A1 receptor) | IC50 (human A1 receptor) [nM] | Kd [2] [nM] | IC50 [3] [nM] | IC50 [3, 5] [nM] | inhibition at 50 µM (human A2A receptor) [%] | Human A3 Receptor pKi (human A3 receptor) | IC50 (human A3 receptor) [nM] | IC50 (human A2B receptor [4]) [nM] | Compound
1 | 6.55 | 320 | 4.73 | 18500 | 5.02 | 19000 | 500 | 400 | 398 | – | – | – | – | Fc1cnccc1-c1nnc(Nc2cccnc2)nc1-c1cccnc1 [Example 1, 6-(3-fluoropyridin-4-yl)-N,5-di(pyridin-3-yl)-1,2,4-triazin-3-amine]
2 | 6.93 | 460 | <4.70 | – | 5.96 | 2200 | 240 | – | – | 54 | 4.68 | 27100 | – | Cc1cc(Nc2nnc(-c3ccncc3F)c(-c3ccccc3F)n2)[nH]n1 [Example 14, 5-(2-fluorophenyl)-6-(3-fluoropyridin-4-yl)-N-(3-methyl-1H-pyrazol-5-yl)-1,2,4-triazin-3-amine]
3 | – | – | – | – | – | – | 470 | – | – | – | – | – | – | Cc1nsc(Nc2nnc(-c3ccnc(C(F)(F)F)c3)c(-c3ccccc3F)n2)n1 [Example 11, N-(5-(2-fluorophenyl)-6-(2-(trifluoromethyl)pyridin-4-yl)-1,2,4-triazin-3-yl)-3-methyl-1,2,4-thiadiazol-5-amine]
4 | 6.84 | 160 | <4.70 | – | 5.73 | 3790 | 100 | – | – | 48 | 5.14 | 9520 | – | CNC(=O)Nc1nnc(-c2ccncc2F)c(-c2ccccc2F)n1 [Example 16, 1-(5-(2-fluorophenyl)-6-(3-fluoropyridin-4-yl)-1,2,4-triazin-3-yl)-3-methylurea]
5 | – | – | – | – | – | – | 130 | – | – | – | – | – | – | Fc1ccccc1-c1nc(Nc2cccnc2)nnc1-c1ccnc(C(F)(F)F)c1 [Example 8, 5-(2-fluorophenyl)-N-(pyridin-3-yl)-6-(2-(trifluoromethyl)pyridin-4-yl)-1,2,4-triazin-3-amine]
6 | 6.5 | 360 | 5.48 | 3280 | – | – | 1000 | – | – | – | – | – | – | Fc1cnccc1-c1nnc(Nc2nc(Cl)cs2)nc1-c1cccnc1 [Example 4, 4-chloro-N-(6-(3-fluoropyridin-4-yl)-5-(pyridin-3-yl)-1,2,4-triazin-3-yl)thiazol-2-amine]
7 | 7.76 | – | 5.66 | – | 6.19 | – | – | – | – | – | 6.52 | – | 41.7 | OCc1ncc(Nc2nnc(-c3ccncc3F)c(-c3ccccc3F)n2)cn1 [Example 39, (5-{[5-(2-fluorophenyl)-6-(3-fluoropyridin-4-yl)-1,2,4-triazin-3-yl]amino}pyrimidin-2-yl)methanol]
8 | 6.99 | 120 | 4.9 | 12700 | 5.43 | 7440 | 1000 | 630 | 631 | – | – | – | – | Fc1cccc(Nc2nnc(-c3ccncc3F)c(-c3cccnc3)n2)c1 [Example 2, N-(3-fluorophenyl)-6-(3-fluoropyridin-4-yl)-5-(pyridin-3-yl)-1,2,4-triazin-3-amine]
9 | 6.82 | 170 | 4.4 | 39400 | 6.23 | 1180 | 120 | – | – | – | 4.48 | 43500 | 501 | Cc1n[nH]c(Nc2nnc(-c3ccncc3F)c(-c3ccccc3F)n2)n1 [Example 15, 5-(2-fluorophenyl)-6-(3-fluoropyridin-4-yl)-N-(3-methyl-1H-1,2,4-triazol-5-yl)-1,2,4-triazin-3-amine]
